How the values were obtained:
Type in all cases: cell-based
Settings in all cases: twenty-four hours after inoculation, combination assay
[1] = test system: methicillin-resistant Staphylococcus aureus (MRSA); assay: In vitro growth inhibition on sheep blood agar (SBA) plates
Experimental: (§1) In vitro testing was conducted to measure the efficacy of WT13-12 at inhibiting the growth of clinically relevant bacteria. […] WT13-12 was streaked across half of a sheep blood agar (SBA) plate and allowed to dry for 15 minutes. The other side was streaked with the vehicle but not containing WT13-12. After drying, 50 μL of purified bacteria at 100,000 col/mL was streaked onto the control and treated sides of the sheep blood agar plates. After streaking, the plates were incubated at 37° C. for 48 hours. Growth was assessed at 24 and 48 hours post-inoculation. Percent inhibition was determined by measuring the treated side vs. the control side with the control side set at 100% growth.
(§2) Each component of WT13-12 was tested individually or in paired combination in the in vitro bacterial growth inhibition assay described above to determine the relative contribution of each component.

[2] = test system: Streptococcus agalactiae (Group B beta strep); assay: In vitro growth inhibition on SBA plates
Experimental: as §1, §2

[3] = test system: Streptococcus pyogenes (Group A beta hemolytic strep); assay: In vitro growth inhibition on SBA plates
Experimental: as §1, §2

Structure (SMILES) | growth inhibition of MRSA versus control [1] | growth inhibition of S. agalactiae versus control [2] | growth inhibition of S. pyogenes versus control [3]
C=CCCCCCCCCC(=O)O [undecylenic acid] | no effect | significant effect | significant inhibitory effects
N=C(N)NCCC[C@H](N)C(=O)O [L-Arginine] | no effect |  | 

Reference: US10195242B2, “Therapeutic compounds” (Wintermute Biomedical, Inc., priority 2013, dated 2019)
